Legend:
Settings in all cases: 72 h
Calu-3 [1] = experiment: drug sensitivity score (DSS) for viability; higher = more toxic; extreme values may be limits of the assay
U2OS [2] = experiment: as above
Caco-2 [3] = experiment: as above
HepG2 [4] = experiment: as above
Vero E6 [5] = experiment: as above
Calu-3 [6] = experiment: cell viability relative to DMSO; higher = less toxic
U2OS [7] = experiment: as above
Caco-2 [8] = experiment: as above
HepG2 [9] = experiment: as above
Vero E6 [10] = experiment: as above
Calu-3 [11] = experiment: relative viability EC50 (midpoint between 100% and the lowest measured viability); higher = less toxic
U2OS [12] = experiment: as above
Caco-2 [13] = experiment: as above
HepG2 [14] = experiment: as above
Vero E6 [15] = experiment: as above

| Compound | drug sensitivity score (Calu-3 [1]) | drug sensitivity score (U2OS [2]) | drug sensitivity score (Caco-2 [3]) | drug sensitivity score (HepG2 [4]) | drug sensitivity score (Vero E6 [5]) | cell viability (Calu-3 [6]; 1 nM) [%] | cell viability (Calu-3 [6]; 10 nM) [%] | cell viability (Calu-3 [6]; 100 nM) [%] | cell viability (Calu-3 [6]; 1000 nM) [%] | cell viability (Calu-3 [6]; 10000 nM) [%] | cell viability (U2OS [7]; 1 nM) [%] | cell viability (U2OS [7]; 10 nM) [%] | cell viability (U2OS [7]; 100 nM) [%] | cell viability (U2OS [7]; 1000 nM) [%] | cell viability (U2OS [7]; 10000 nM) [%] | cell viability (Caco-2 [8]; 1 nM) [%] | cell viability (Caco-2 [8]; 10 nM) [%] | cell viability (Caco-2 [8]; 100 nM) [%] | cell viability (Caco-2 [8]; 1000 nM) [%] | cell viability (Caco-2 [8]; 10000 nM) [%] | cell viability (HepG2 [9]; 1 nM) [%] | cell viability (HepG2 [9]; 10 nM) [%] | cell viability (HepG2 [9]; 100 nM) [%] | cell viability (HepG2 [9]; 1000 nM) [%] | cell viability (HepG2 [9]; 10000 nM) [%] | cell viability (Vero E6 [10]; 1 nM) [%] | cell viability (Vero E6 [10]; 10 nM) [%] | cell viability (Vero E6 [10]; 100 nM) [%] | cell viability (Vero E6 [10]; 1000 nM) [%] | cell viability (Vero E6 [10]; 10000 nM) [%] | relative viability EC50 (Calu-3 [11]) [µM] | relative viability EC50 (U2OS [12]) [µM] | relative viability EC50 (Caco-2 [13]) [µM] | relative viability EC50 (HepG2 [14]) [µM] | relative viability EC50 (Vero E6 [15]) [µM] |
| --- | --- | --- | --- | --- | --- | --- | --- | --- | --- | --- | --- | --- | --- | --- | --- | --- | --- | --- | --- | --- | --- | --- | --- | --- | --- | --- | --- | --- | --- | --- | --- | --- | --- | --- | --- |
| Nc1ncnc(Nc2ccc(Cl)cc2)n1 [chlorazanil] | 0 | 0 | 0 | 0 | 0 | 104 | 101 | 103 | 87.4 | 98.4 | 101 | 96.8 | 97.8 | 98.3 | 99.6 | 116 | 97.7 | 96.5 | 101 | 103 | 96.4 | 93.9 | 88 | 93.7 | 92.5 | 99.6 | 101 | 91 | 98.6 | 101 | > 10 | > 10 | > 10 | > 10 | > 10 |
| N[C@@H]1CCCN(c2c(/C=C3\SC(=O)NC3=O)cccc2-c2ccccc2)C1 [AZD1208] | 0 | 0 | 0 | 1.2 | 0 | 105 | 94.4 | 92.4 | 86.6 | 99.8 | 97.1 | 88.9 | 93.3 | 95.6 | 96.7 | 103 | 97.5 | 109 | 95.3 | 98.6 | 92.6 | 104 | 93.5 | 89.8 | 80 | 98.3 | 99.9 | 87.9 | 91.8 | 96.2 | > 10 | > 10 | > 10 | > 10 | > 10 |
| NC1=N[C@@]2(c3cc(NC(=O)c4ccc(F)cn4)ccc3F)COC[C@H]2CS1 | 0 | 0 | 0 | 0 | 0 | 103 | 96.5 | 93.4 | 93.1 | 98.5 | 98.6 | 94.6 | 101 | 98.4 | 100 | 94.8 | 93.7 | 101 | 86 | 103 | 99.9 | 110 | 93.4 | 112 | 105 | 95.5 | 97.2 | 94.3 | 99.4 | 102 | > 10 | > 10 | > 10 | > 10 | > 10 |
| Nc1ccc(/N=N/c2ccccc2)c(N)n1 [phenazopyridine] | 0 | 0 | 0 | 0 | 0.3 | 91.9 | 102 | 88.1 | 99.1 | 95.8 | 94 | 98.4 | 95.7 | 99.2 | 103 | 85.4 | 102 | 97 | 99.8 | 94 | 91.1 | 91.8 | 105 | 89.4 | 100 | 109 | 88.6 | 102 | 102 | 82.7 | > 10 | > 10 | > 10 | > 10 | > 10 |
| CCCCCNC(=N)N/N=C/c1c[nH]c2ccc(OC)cc12 [tegaserod] | 0 | 0 | 0 | 0 | 0 | 105 | 96.3 | 97.9 | 91.4 | 92.9 | 94.1 | 99.3 | 94.6 | 97.7 | 95.9 | 83.7 | 89.8 | 108 | 84.7 | 96.9 | 94.6 | 94 | 109 | 105 | 114 | 100 | 94.4 | 97.8 | 90.7 | 92.8 | > 10 | > 10 | > 10 | > 10 | > 10 |
| CS(=O)(=O)N(Cc1ccco1)C[C@@H](O)Cn1c2ccccc2c2ccccc21 [KL-001] | 0 | 0 | 0 | 0 | 0 | 105 | 93.2 | 101 | 115 | 110 | 98.3 | 98.4 | 99 | 93.7 | 90 | 95.6 | 98.5 | 102 | 94.1 | 94.6 | 98.9 | 104 | 97.2 | 104 | 106 | 99 | 101 | 97.6 | 100 | 98 | > 10 | > 10 | > 10 | > 10 | > 10 |
| Cn1cc(C2=C(c3cn(CCCSC(=N)N)c4ccccc34)C(=O)NC2=O)c2ccccc21 [bisindolylmaleimide-IX] | 6 | 5 | 4.9 | 5.7 | 5.9 | 112 | 96.4 | 100 | 91.2 | 18.1 | 105 | 100 | 106 | 103 | 5.7 | 100 | 97.7 | 101 | 94.9 | 25.3 | 98.6 | 104 | 105 | 96.8 | 5.1 | 91.7 | 101 | 89.3 | 92.6 | 15 | 2.28 | 3.32 | 2.61 | 2.92 | 2.45 |
| N[C@@H](CCC(=O)N[C@@H](CSN=O)C(=O)NCC(=O)O)C(=O)O [S-nitrosoglutathione] | 0 | 0 | 0 | 0 | 0 | 94 | 99.2 | 93.9 | 108 | 108 | 98 | 97.6 | 92.9 | 98.3 | 101 | 101 | 98.2 | 96.3 | 87.9 | 99.9 | 102 | 98.4 | 108 | 91.7 | 99 | 93.6 | 97.2 | 95.2 | 95.2 | 101 | > 10 | > 10 | > 10 | > 10 | > 10 |
| COP(=O)(OC)OC(c1ccc(Cl)cc1)P(=O)(OC)OC (stereo not given) [mifobate] | 0 | 0 | 0 | 0 | 0 | 93.6 | 94.1 | 85.1 | 96.7 | 96.3 | 101 | 97.5 | 101 | 94.4 | 98.3 | 106 | 94.5 | 98 | 107 | 105 | 107 | 98.5 | 92.8 | 99.8 | 93.7 | 101 | 94.5 | 98 | 92.5 | 100 | > 10 | > 10 | > 10 | > 10 | > 10 |
| CC1(C)S[C@@H]2[C@H](NC(=O)C(C(=O)O)c3ccccc3)C(=O)N2[C@H]1C(=O)O (stereo not given in full) [carbenicillin] | 0 | 0 | 0 | 0 | 0 | 105 | 98.3 | 103 | 105 | 99.9 | 103 | 102 | 98.8 | 102 | 96 | 104 | 106 | 92.5 | 93.9 | 94.9 | 97.2 | 100 | 103 | 103 | 98 | 102 | 100 | 102 | 95.7 | 95.7 | > 10 | > 10 | > 10 | > 10 | > 10 |
| Cc1cc(O)c(-c2ccc([C@@H](C)CN)cc2)c2c1[nH]c(=O)c1sccc12 [OTS514] | 16.7 | 18.2 | 14.9 | 24.2 | 7.6 | 105 | 92.5 | 81.7 | 23.9 | 38.8 | 96.3 | 97.8 | 96.6 | 1.1 | 1.1 | 98.6 | 87.1 | 83.6 | 29.9 | 25.5 | 109 | 99.4 | 46.3 | 3.1 | 1.1 | 102 | 98.8 | 93.2 | 85.4 | 6 | 0.16 | 0.291 | 0.21 | 0.0917 | 1.95 |
| C#CCN(C)Cc1ccccc1 [pargyline] | 0 | 0 | 0 | 0 | 0 | 93.5 | 97.4 | 95.4 | 89.3 | 102 | 99.2 | 101 | 99.9 | 102 | 103 | 96 | 93 | 96.3 | 98.6 | 103 | 98.7 | 96.2 | 109 | 89.7 | 102 | 96.4 | 96.3 | 92.7 | 93.1 | 107 | > 10 | > 10 | > 10 | > 10 | > 10 |
| OB1OCc2cc(Cl)ccc21 [AN2718] | 0 | 0 | 0.4 | 0 | 0 | 100 | 89 | 90.6 | 102 | 92.8 | 101 | 98 | 96.1 | 98.2 | 98.7 | 93.8 | 102 | 82.2 | 98.8 | 82.7 | 120 | 107 | 107 | 94 | 108 | 101 | 99.8 | 94.7 | 96.9 | 103 | > 10 | > 10 | > 10 | > 10 | > 10 |
| Nc1nc(F)nc2c1ncn2[C@@H]1O[C@H](CO)[C@@H](O)[C@@H]1O [fludarabine] | 0.7 | 0 | 0 | 1.1 | 0 | 111 | 88.9 | 95.2 | 87.6 | 87.5 | 98.8 | 102 | 98.6 | 102 | 103 | 94.1 | 104 | 102 | 99.9 | 102 | 103 | 95.6 | 95.2 | 95.6 | 79.4 | 93.9 | 95.2 | 92.8 | 99.4 | 101 | > 10 | > 10 | > 10 | > 10 | > 10 |
